Results from patent US20050261177A1, “Compound” (priority 2001, published 2005).
Read-outs that look alike come from different tables or passages of the source. Numbered stars: 1 amine (or outer) side, 2 acyl side, 3 side chain; on linkers, the order of the positions; unused ones are H or OH. Bridge positions count the residues as written; N and C are the ends. Square brackets hold non-standard residues; d marks the D form. Peptide text beside a SMILES is read from it. * marks the point of attachment. hTyr(3R-OH,3'-OSO3H) = N[C@H](C(=O)O)[C@H](O)Cc1ccc(O)c(OS(=O)(=O)O)c1; X3 = O=C(c1ccc(-c2cn3nc(-c4ccc(OC5CCN(c6ccccc6)CC5)cc4)sc3n2)cc1)*; X2 = COCCCCCCN1CCN(c2ccc(-c3nn4cc(-c5ccc(C(=O)*)cc5)nc4s3)cc2)CC1; X4 = C[C@H]1CC[C@H](N2CCN(c3ccc(-c4ccc(C(=O)*)cc4)cc3)CC2)CC1; Orn(3R-OH,Nδ-CH(CH2OH)2) = N[C@H](C(=O)O)[C@H](O)CCNC(CO)CO; X1 = CCCCCOC1CCN(c2ccc(-c3nnc(-c4ccc(C(=O)*)cc4)s3)cc2)CC1; Orn(4R-OH) = O=C([C@H](C[C@@H](O)CN[*:3])N[*:1])[*:2]; Pro(3S-OH,4S-Me) = C[C@H]1CN[C@H](C(=O)O)[C@H]1O; Hyp = O=C(O)[C@@H]1C[C@@H](O)CN1

System: Candida albicans FP-633
Assay type: cell-based
Experimental: In vitro antimicrobial activity of the object compound of Examples 41, 46, 53 and 56 disclosed later was determined by MICs in mouse serum as described below.
The MICS in mouse serum were determined by the microdilution method using ICR mouse serum buffered with 20 mM HEPES buffer (pH 7.3) as a test medium. Inoculum suspension of 10^6 cells/ml were prepared by a hemocytometric procedure and diluted to obtain an inoculum size of approximately 1.0×10^3 cells/ml. Microplates were incubated at 37° C. for 24 hours in 5% CO2. The MICS were defined as the lowest concentrations at which no visible growth was observed.

[1] = Candida albicans FP-633, ICR mouse serum buffered with 20 mM HEPES (pH 7.3), 37° C., 24 hours, 5% CO2, lowest concentration with no visible growth

Row | SMILES | MIC (FP-633, 24 h, pH 7.3) | MIC [1]
1 | COCCCCCCN1CCN(c2ccc(-c3nn4cc(-c5ccc(C(=O)N[C@H]6C[C@@H](O)CNC(=O)[C@@H]7[C@@H](O)[C@@H](C)CN7C(=O)[C@H]([C@H](O)CCNC(CO)CO)NC(=O)[C@H]([C@H](O)Cc7ccc(O)c(OS(=O)(=O)O)c7)NC(=O)[C@@H]7C[C@@H](O)CN7C(=O)[C@H]([C@@H](C)O)NC6=O)cc5)nc4s3)cc2)CC1 [Example 46] (X2-[Orn(4R-OH)]T[Hyp][hTyr(3R-OH,3'-OSO3H)][Orn(3R-OH,Nδ-CH(CH2OH)2)][Pro(3S-OH,4S-Me)]; lactam 1-C) | <0.3 µg/mL | –
2 | CCCCCOC1CCN(c2ccc(-c3nnc(-c4ccc(C(=O)N[C@H]5C[C@@H](O)CNC(=O)[C@@H]6[C@@H](O)[C@@H](C)CN6C(=O)[C@H]([C@H](O)CCNC(CO)CO)NC(=O)[C@H]([C@H](O)Cc6ccc(O)c(OS(=O)(=O)O)c6)NC(=O)[C@@H]6C[C@@H](O)CN6C(=O)[C@H]([C@@H](C)O)NC5=O)cc4)s3)cc2)CC1 [Example 56] (X1-[Orn(4R-OH)]T[Hyp][hTyr(3R-OH,3'-OSO3H)][Orn(3R-OH,Nδ-CH(CH2OH)2)][Pro(3S-OH,4S-Me)]; lactam 1-C) | <0.3 µg/mL | –
3 | C[C@@H](O)[C@@H]1NC(=O)[C@@H](NC(=O)c2ccc(-c3cn4nc(-c5ccc(OC6CCN(c7ccccc7)CC6)cc5)sc4n3)cc2)C[C@@H](O)CNC(=O)[C@@H]2[C@@H](O)[C@@H](C)CN2C(=O)[C@H]([C@H](O)CCNC(CO)CO)NC(=O)[C@H]([C@H](O)Cc2ccc(O)c(OS(=O)(=O)O)c2)NC(=O)[C@@H]2C[C@@H](O)CN2C1=O [Example 41] (X3-[Orn(4R-OH)]T[Hyp][hTyr(3R-OH,3'-OSO3H)][Orn(3R-OH,Nδ-CH(CH2OH)2)][Pro(3S-OH,4S-Me)]; lactam 1-C) | – | <0.3 µg/mL
4 | C[C@@H](O)[C@@H]1NC(=O)[C@@H](NC(=O)c2ccc(-c3ccc(N4CCN([C@H]5CC[C@H](C)CC5)CC4)cc3)cc2)C[C@@H](O)CNC(=O)[C@@H]2[C@@H](O)[C@@H](C)CN2C(=O)[C@H]([C@H](O)CCNC(CO)CO)NC(=O)[C@H]([C@H](O)Cc2ccc(O)c(OS(=O)(=O)O)c2)NC(=O)[C@@H]2C[C@@H](O)CN2C1=O [Example 53] (X4-[Orn(4R-OH)]T[Hyp][hTyr(3R-OH,3'-OSO3H)][Orn(3R-OH,Nδ-CH(CH2OH)2)][Pro(3S-OH,4S-Me)]; lactam 1-C) | – | <0.3 µg/mL
